Data published in patent US4816247A, “Emulsion compositions for administration of sparingly water soluble ionizable hydrophobic drugs” (American Cyanamid Company, priority 1985, dated 1989).
Converted amounts (≈) assume the structure as drawn. “Also recorded” adds a separate entry of the source. Counter-ions that a name gives are not always drawn.

How the values were obtained:
[1] = commercial product solution; cited from earlier work
[2] = Solubility of bisantrene in selected media and biological fluids (Table IB, FIGS. 1 and 2); assay type: physicochemical; settings: in words
Excerpt: (§1) In serum and plasma, however due to increase in the pH the solubility drops considerably and this may be the reason that the drug precipitates at the point of infusion. […] Thus, if the drug can be kept in solution long enough to allow complete dilution in the entire blood volume, then the partitioning should take place without the intermediate precipitation.

[3] = Solubility of bisantrene base and its oleate ion-pair in water, oils and emulsions; assay type: physicochemical; settings: in words
Excerpt: Bisantrene base is insoluble in water, oils, oil phase of emulsions or preformed commercial, nutritional emulsions such as Intralipid® and Liposyn®. When Bisantrene base forms an ion-pair with oleic acid the solubility of Bisantrene increases in oils or oil phases of emulsions. Additionally, Bisantrene-oleate ion-pair acts as a surfactant, becomes part of an interfacial emulsion film and stabilizes the emulsion in vitro.

erythrocytes = assay: Partitioning of bisantrene in blood; assay type: in vitro ADME; settings: in words
Excerpt: as §1

soft tissues / vein = settings: cited from earlier work
plasma protein = settings: cited from earlier work
[4] = tested on: marginal ear vein of rabbits; assay: Peripheral vein irritation, intravenous infusion in marginal ear vein of rabbits, gross postmortem findings; assay type: in vivo, rabbit; set-up: key to External: Reddened / External: Yellow Deposit / Subcutaneous: Hemorrhage / Vascular Lumen: Yellow Deposit / External: Swollen / Subcutaneous: Edema / Subcutaneous: Yellow Deposit / Vascular Lumen: Blood Clot: +: Positive or present.; -: Negative or absent
Procedure: (§2) The emulsin drug delivery system formulation of Emulsion 3 in Table III was tested in two species of animals, for peripheral vein irritation in order to determine the occurrence of local injection site adverse reactions. Also tested was a 1.0 mg/ml solution of bisantrene hydrochloride in 5% dextrose/water and a composition of the Emulsion 3 vehicle without bisantrene base. The two species of animals used were rabbits and dogs. The formulations were given intravenously in a peripheral vein using a Butterfly infusion set (Becton, Dickinson Co., Inc., Rutherford, N.J). The marginal ear vein was used in the rabbit and the saphenous or the cephalic vein of the leg was used in the dog.
(§3) The formulations were given below by slow intravenous infusion using a Sage syringe pump (Sage Instruments, Orion Research Inc., Cambridge, Ma.) over a 2 hour period. The animals were restrained but unanesthetized during the infusion. After the infusion, the animals were returned to their cages and offered food. The animals were sacrificed one day after the infusion.
(§4) At sacrifice, the infused vein was opened from the point of infusion and cardiad for several centimeters. […] FIGS. 3, 4 and 5 are comprised of representative photographs of the opened peripheral veins of dogs as hereinabove described and verify the findings stated above.

peripheral vein of dogs = assay: Peripheral vein irritation, intravenous infusion in peripheral vein of dogs, gross postmortem findings; assay type: in vivo, dog
Procedure: as §2, §3, §4

white blood cell counts = assay: Group mean white blood cell counts, repeated intravenous infusion in dogs; assay type: in vivo; settings: dog
Procedure: A comparison study of the group mean white blood cell counts (WBC×10^-3) was conducted separately for both the male and female animals in each group. The WBC counts of all animals were performed 7 days before dosing. Doses were administered on days 0, 21 and 42, whereas additional WBC counts on all animals were made on days 3, 7, 14, 20, 24, 28, 35, 41, 45, 49 and 56. The mean data from this test are recorded in Table VI and the group mean white blood cell counts for males and females are plotted separately in FIGS. 6 and 7 respectively.

dogs = assay: Clinical signs and injection site findings, repeated intravenous infusion in dogs; settings: dog
[5] = Absorption and excretion of antiarthritic triazine compound, candidate dosage forms; settings: in vivo
Procedure: (§5) Because the antiarthritic triazine compound is a base, organic acids as counter-ions were studied to improve drug solubility. […] Additional drug complexes were prepared with various organic and inorganic acids. […] The inherent insolubility of the drug appears to be responsible, to some extent, for the preceding results. In order to overcome the drug insolubility problem one of the objectives considered was to design a dosage form which would improve drug absorption when given by intravenous, intramuscular or intra-articular injection.

[6] = assay type: physicochemical
Procedure: as §5

[7] = rabbit, female, 2 h i.v. infusion
[8] = rabbit, male, 2 h i.v. infusion

CC(C)NCC(O)COc1cccc2ccccc12 (racemic) [Inderal, propanolol]
Ambient Solution pH [1]: 3.50

C(=N\NC1=NCCN1)/c1c2ccccc2c(/C=N/NC2=NCCN2)c2ccccc12 [Bisantrene, bis(2-imidazolin-2-ylhydrazone)-9,10-anthracenedicarboxaldehyde]
solubility in whole blood ([2]; compared with plasma and serum): much greater than in plasma and serum | solubility characteristics of bisantrene [2]: very sensitive to temperature changes, pH, and various solutes; also recorded: quite soluble in media useful as candidates for I.V. infusions such as normal saline and 5% dextrose | solubility in water, oils, oil phase of emulsions or preformed commercial nutritional emulsions [3]: insoluble | partitioning in blood (erythrocytes): eventually partitions into the erythrocytes which then serve as slow release carriers

C[C@H](N)[C@H](O)c1cccc(O)c1 [Aramine, metaraminol]
Ambient Solution pH [1]: 3.60

C(=N\NC1=NCCN1)/c1c2ccccc2c(/C=N/NC2=NCCN2)c2ccccc12 [bisantrene dihydrochloride]
problem likely to occur on intravenous injection (soft tissues / vein; aqueous solution i.v. in mammals): chemical phlebitis

CC(=O)Nc1ccc(OCC(O)CNC(C)C)cc1 (centres unmarked) [Eraldin, practolol]
Ambient Solution pH [1]: 5.80

COc1cccc2c1C(=O)c1c(O)c3c(c(O)c1C2=O)C[C@@](O)(C(=O)CO)C[C@@H]3O[C@H]1C[C@H](N)[C@H](O)[C@H](C)O1 [Adriamycin, Doxorubicin]
effect of extravasation into the soft tissues (soft tissues / vein; intravenous administration in cancer therapy): massive tissue necrosis about the site of the attempted intravenous administration

CCCCCCCC/C=C\CCCCCCCC(=O)O [oleic acid]
molecules bound with one molecule of typical plasma protein (plasma protein): nine

OCCOCCN1CCN(C(c2ccccc2)c2ccc(Cl)cc2)CC1 (centres unmarked) [Atarax, hydroxyzine]
Ambient Solution pH [1]: 5.60

C(=N\NC1=NCCN1)/c1c2ccccc2c(/C=N/NC2=NCCN2)c2ccccc12 [Bisantrene HCl]
yellow or yellow-orange deposits in vascular-lumen ([4]; marginal ear vein of rabbits): yellow or yellow-orange deposits which result | External: Reddened [4, 7]: + | External: Yellow Deposit [4, 7]: + | Subcutaneous: Hemorrhage [4, 7]: - | Vascular Lumen: Yellow Deposit [4, 7]: + | External: Reddened [4, 8]: - | External: Swollen [4, 8]: - | External: Yellow Deposit [4, 8]: - | Subcutaneous: Edema [4, 8]: + | Subcutaneous: Hemorrhage [4, 8]: - | Subcutaneous: Yellow Deposit [4, 8]: - | Vascular Lumen: Blood Clot [4, 8]: - | Vascular Lumen: Yellow Deposit [4, 8]: + | yellow-orange deposit in vascular-lumen, photograph of dog vein (peripheral vein of dogs; FIGS. 3A, 3B, 4A, 5A, listed as bisantrene hydrochloride): clearly shows the yellow-orange deposits in the vascular-lumen | yellow or yellow-orange deposits in vascular-lumen (peripheral vein of dogs; peripheral vein of dogs): yellow or yellow-orange deposits which result | group mean white blood cell count (white blood cell counts; female, day 3, 10 mg/kg i.v. on days 0, 21, 42): 6.3 WBC × 10^-3 | group mean white blood cell count (white blood cell counts; female, day 7, 10 mg/kg i.v. on days 0, 21, 42): 4.5 WBC × 10^-3 | group mean white blood cell count (white blood cell counts; female, day 14, 10 mg/kg i.v. on days 0, 21, 42): 8.6 WBC × 10^-3 | group mean white blood cell count (white blood cell counts; female, day 20, 10 mg/kg i.v. on days 0, 21, 42): 10.5 WBC × 10^-3 | group mean white blood cell count (white blood cell counts; female, day 24, 10 mg/kg i.v. on days 0, 21, 42): 5.1 WBC × 10^-3 | group mean white blood cell count (white blood cell counts; female, day 28, 10 mg/kg i.v. on days 0, 21, 42): 4.1 WBC × 10^-3 | group mean white blood cell count (white blood cell counts; female, day 35, 10 mg/kg i.v. on days 0, 21, 42): 13.0 WBC × 10^-3 | group mean white blood cell count (white blood cell counts; female, day 41, 10 mg/kg i.v. on days 0, 21, 42): 9.7 WBC × 10^-3 | group mean white blood cell count (white blood cell counts; female, day 45, 10 mg/kg i.v. on days 0, 21, 42): 5.1 WBC × 10^-3 | group mean white blood cell count (white blood cell counts; female, day 49, 10 mg/kg i.v. on days 0, 21, 42): 6.0 WBC × 10^-3 | group mean white blood cell count (white blood cell counts; female, day 56, 10 mg/kg i.v. on days 0, 21, 42): 13.2 WBC × 10^-3 | group mean white blood cell count (white blood cell counts; female, day -7 (before dosing)): 10.1 WBC × 10^-3 | group mean white blood cell count (white blood cell counts; male, day 3, 10 mg/kg i.v. on days 0, 21, 42): 7.0 WBC × 10^-3 | group mean white blood cell count (white blood cell counts; male, day 7, 10 mg/kg i.v. on days 0, 21, 42): 3.7 WBC × 10^-3 | group mean white blood cell count (white blood cell counts; male, day 14, 10 mg/kg i.v. on days 0, 21, 42): 11.1 WBC × 10^-3 | group mean white blood cell count (white blood cell counts; male, day 20, 10 mg/kg i.v. on days 0, 21, 42): 10.8 WBC × 10^-3 | group mean white blood cell count (white blood cell counts; male, day 24, 10 mg/kg i.v. on days 0, 21, 42): 5.1 WBC × 10^-3 | group mean white blood cell count (white blood cell counts; male, day 28, 10 mg/kg i.v. on days 0, 21, 42): 2.9 WBC × 10^-3 | group mean white blood cell count (white blood cell counts; male, day 35, 10 mg/kg i.v. on days 0, 21, 42): 13.5 WBC × 10^-3 | group mean white blood cell count (white blood cell counts; male, day 41, 10 mg/kg i.v. on days 0, 21, 42): 11.3 WBC × 10^-3 | group mean white blood cell count (white blood cell counts; male, day 45, 10 mg/kg i.v. on days 0, 21, 42): 5.3 WBC × 10^-3 | group mean white blood cell count (white blood cell counts; male, day 49, 10 mg/kg i.v. on days 0, 21, 42): 3.3 WBC × 10^-3 | group mean white blood cell count (white blood cell counts; male, day 56, 10 mg/kg i.v. on days 0, 21, 42): 12.8 WBC × 10^-3 | group mean white blood cell count (white blood cell counts; male, day -7 (before dosing)): 11.3 WBC × 10^-3 | clinical signs during the intravenous infusion (dogs; 10 mg/kg, about 2 h infusion): none was apparent | swelling of the infused leg (dogs; 10 mg/kg, about 2 h infusion): three | local injection site deposits or binding of the drug, inflammation and phlebitis (dogs; conclusion of study): present

C(=NNC1=NCCN1)c1c2ccccc2c(C=NNC2=NCCN2)c2ccccc12 [Bisantrene-oleate ion-pair]
solubility in oils or oil phases of emulsions ([3]; ion-pair with oleic acid): increases

CC(C)(C)C(C)(C)Nc1nc(NC(C)(C)C(C)(C)C)nc(N2CC3CCC(CC3)C2)n1 [Antiarthritic Triazine Compound, 3-[4,6-bis[(1,1-2,2-tetramethylpropyl)amino]-s-triazin-2-yl]-3-azabicyclo[3.2.2]nonane]
parenteral absorption of the drug [5]: negligible | oral absorption ([5]; po): slightly better | Solubility [6]: 300 µg/mL (≈ 697 µM) | increase of solubility not more than [6]: 500 to 1000 µg/mL | solubility in water [6]: insignificant solubility in water
